{
  "source": "patent US9212349B2",
  "about": "“Method to produce virus in cultured cells” (priority 2011, dated 2015)",
  "key": {"VZV [1]": {"system": "VZV", "experiment": "Yield of cell-free infectious VZV from infected MRC5 cells, plaque assay on ARPE-19 cells", "type": "cell-based, varicella zoster virus", "conditions": "Example 6; MOI 1:100, 72 hours after infection; HSA, DHA 25 μM, AA 100 μM, with 10 μM α-T; cholesterol 13 μM"}, "VZV [2]": {"system": "VZV", "experiment": "Yield of cell-free infectious VZV from infected MRC5 cells, plaque assay on ARPE-19 cells", "type": "cell-based, varicella zoster virus", "conditions": "for VZV yield, fold change relative to NT / VZV yield in comparison to no treatment: MOI 1:50, 72 h; for VZV yield in comparison to no treatment: Example 5, lipids at 6 hpi plus 10 μM αT, HSA, OSA 25 μM, sonicated immediately", "protocol": "For this test, MRC5 cells (passage 20-25) were seeded at a density of 300.000 cell/100 mm culture dish and grown in 15 ml of DMEM containing 10% fetal calf serum plus 2 mM glutamax (Invitrogen) at 35° C. A lipid mixture (LM-1, 1 ml/liter medium, Sigma Aldrich #L5146) was added to the cells either at the time of seeding or 1 day after seeding. Three days later, the culture medium was replaced with 10 ml growth medium containing 50 mM sucrose as a stabilizer. The cells were further incubated for 3 days and growth medium was replaced with fresh medium containing no sucrose. After cells reached confluence, they were infected with VZV by adding infected cells (1 infected cell/50 uninfected cells; infected cells were from a preparation frozen in a solution of 10% DMSO plus 90% fetal calf serum and stored in liquid nitrogen). At the time of infection, the cultures were re-fed with DMEM containing 10% fetal calf serum plus 2 mM glutamax. Arachidonic acid (AA)+alpha-tocopherol (αT) or DHA+αT were added at the indicated times. 72 hours after infection, cells were washed twice with PBS, and incubated in 10 ml of PBS containing 50 mM ammonium chloride for 50 minutes at 4° C. The cells were harvested and frozen in PSGC buffer (Harper et al., Arch Virol 143:1163-70, 1998) at −80° C. Infectious virus was subsequently quantified by plaque assay of sonicated cells on ARPE-19 cells (American Type Culture Collection). Results are set out in FIG. 3.\nBriefly, in these repeat experiments, MRC5 cells were infected with VZV at an MOI=1:50. AA, DHA, and αT were added to the cells at 6 hpi as indicated. 72 hours after infection, the cells were harvested into PSGC buffer and frozen at −80° C. for later processing. After thawing, the cells were sonicated and the yield of cell free VZV quantified by standard plaque assay on ARPE-19 cells. Fold change relative to no treatment (NT) is shown. […] The fold-changes are the average of two independent infections.\nIn brief, MRC5 cells were infected with VZV at an M01=1:50. Lipid mixture 1(LM-1) was added to the cells immediately after cell seeding. At 6 hours after infection, up to about 100 μM AA or […] was added to cells together with up to about 10 μM αT. 72 hours after infection, the cells were harvested into PSGC buffer and either frozen at −80° C. and sonicated later for the release of virus (frozen cells) or immediately sonicated after harvesting and supernatants containing the cell-free VZV were frozen at −80° C. (frozen sup.) prior to titration. Cell-free VZV yield was quantified by plaque assay on APRE-19 cells. Fold change relative to no treatment (NT) is shown. The numbers above the bars indicate the amount of virus obtained per ml in the corresponding treatment. The results are set out in FIG. 5.\nBriefly, MRC5 cells were infected with VZV at an MOI=1:50. Six hours after infection cells were treated with indicated combinations of lipids plus 10 μM αT. Hexacosanoic acid (HSA) and octacosanoic acid (OSA) were dissolved in 20 mg/ml α-cyclodextin (Sigma-Aldrich) in PBS by sonication and added to a solution of 10 mg/ml fatty acid-free BSA (Sigma-Aldrich) in PBS (1:1, v/v) to give a stock concentration of 10 mM for each fatty acid. HSA, OSA, and DHA were used at 25 μM, and AA was used at 25 μM. Two sets of fatty acid concentrations was used for combination treatments: DHA, AA, and HSA was either added at concentrations of 25 μM, 100 μM, and 25 μM (high), or 10 μM, 50 μM, and 10 μM (low), respectively. 72 hours after infection, the cells were harvested into PSGC buffer, sonicated immediately and the yield of cell free VZV quantified by plaque assay on ARPE-19 cells. Fold change relative to no treatment (NT) is shown. The fold-changes are the average of two independent infections.\nBriefly, MRC5 cells were grown in DMEM containing 10% fetal calf serum, 2 mM glutamax (Invitrogen) at 35° C. as described in the text. […]"}, "MRC5 cells": {"system": "MRC5 cells", "experiment": "Cytotoxicity evident upon visual inspection in VZV-infected MRC5 cells", "type": "cell-based, human", "conditions": "100 μM"}, "HCMV (AD169 strain)": {"system": "HCMV (AD169 strain)", "type": "cell-based, human cytomegalovirus", "conditions": "for HCMV yield, fold change relative to no treatment (NT): MRC5, 0.5 IU/cell, additive 2 h after infection, OA/LA/LLA up to 100 μM, EPA 75 μM, DHA 50 μM, AG 250 μM, cholesterol 13 μM; for HCMV yield, fold change relative to no treatment (NT) / HCMV production relative to no treatment: 96 h; for Effect of including the fatty acid on the HCMV yield increase given by aminoguanidine: in the presence of aminoguanidine; for HCMV production relative to no treatment: Example 2, MRC5, 0.5 IU/cell, FIG. 2", "protocol": "Cells were infected with the AD169 strain of HCMV at a multiplicity of 0.5 infectious units/cell, and immediately following a 2-hour adsorption period, cells were fed with medium (Dulbecco's Modified Eagle Medium, DMEM) containing 10% fetal calf serum plus various fatty acids, cholesterol and carbonyl scavenging compound. At 96 hours post infection, infectious virus in the medium was assayed by fluorescent focus assay using antibody to the HCMV IE1 protein.\nBriefly, About 90% confluent MRC5 human fibroblasts were infected with HCMV at a multiplicity of 0.5 IU/cell. Two hours after infection, medium was replaced with fresh medium containing 10% fetal calf serum and either of oleic acid (OA, up to about 100 μM), linoliec acid (LA, up to about 100 μM), α-linolenic acid (LLA, up to about 100 μM), eicosapentaenoic acid (EPA, up to about 75 μM), or docosahexaenoic acid (DHA, up to about 50 μM). The experiment was also performed in the presence of either aminoguanidine (AG, up to about 250 μM) or cholesterol (chol., up to about 13 μM). Virus production at 96 hours after infection was determined by fluorescent focus assay in MRC-5 cells and shown as a fold change relative to no treatment (NT) which was 5×10^5 infectious units. The fold-changes are the average of two independent infections.\nBriefly, about 90% confluent MRC5 fibroblasts were infected with HCMV at a multiplicity of 0.5 IU/cell. Two hours after infection, medium was replaced with fresh medium containing 10% fetal calf serum and α-tocopherol (α-T) or aminoguanidine (AG) at indicated concentrations. Virus production at 96 h after infection was determined by fluorescent focus assay in which MRC-5 cells and shown as a fold change relative to no treatment (NT). The fold-changes are the average of two independent infections. Results are set out in FIG. 2."}, "[3]": {"conditions": "25 μM fatty acid at 6 hpi, absence of αT"}},
  "data": [
    {"smiles": "CCCCC/C=C\\C/C=C\\C/C=C\\C/C=C\\CCCC(=O)O", "note": "[AA, Arachidonic acid]", "values": [
      {"measurement": "VZV yield relative to no treatment", "setting": "VZV [1]", "value": "elevated the yield of VZV"},
      {"measurement": "VZV yield, fold change relative to NT", "setting": "VZV [2]; [3]", "value": "enhanced the yield of virus"},
      {"measurement": "VZV yield, fold change relative to NT", "setting": "VZV [2]; 25 μM fatty acid at 6 hpi, presence of αT", "value": "increased the virus yield"},
      {"measurement": "VZV yield, fold change relative to NT", "setting": "VZV [2]; 100 μM fatty acid at 6 hpi, absence of αT", "value": "inhibited virus production"},
      {"measurement": "VZV yield, fold change relative to NT", "setting": "VZV [2]; 100 μM fatty acid at 6 hpi, presence of αT", "value": 5, "unit": "fold"}
    ]},
    {"smiles": "CC/C=C\\C/C=C\\C/C=C\\C/C=C\\C/C=C\\C/C=C\\CCC(=O)O", "note": "[DHA, docosahexaenoic acid]", "values": [
      {"measurement": "Cytotoxicity", "setting": "MRC5 cells; absence of αT", "value": "toxic"},
      {"measurement": "Cytotoxicity", "setting": "MRC5 cells; presence of αT", "value": "toxic"},
      {"measurement": "HCMV yield, fold change relative to no treatment (NT)", "setting": "HCMV (AD169 strain)", "value": 4.6, "unit": "fold"},
      {"measurement": "VZV yield, fold change relative to NT", "setting": "VZV [2]; [3]", "value": "about 1.5 fold"}
    ]},
    {"smiles": "CC/C=C\\C/C=C\\C/C=C\\C/C=C\\C/C=C\\CCCC(=O)O", "note": "[EPA, eicosapentaenoic acid]", "values": [
      {"measurement": "HCMV yield, fold change relative to no treatment (NT)", "setting": "HCMV (AD169 strain)", "value": 2.5, "unit": "fold"}
    ]},
    {"smiles": "CCCCCCCCCCCCCCCCCCCCCCCCCC(=O)O", "note": "[HSA, hexacosanoic acid]", "values": [
      {"measurement": "VZV yield relative to no treatment", "setting": "VZV [1]", "value": "elevated the yield of VZV"},
      {"measurement": "VZV yield in comparison to no treatment", "setting": "VZV [2]", "value": "improved virus yields"}
    ]},
    {"smiles": "CCCCC/C=C\\C/C=C\\CCCCCCCC(=O)O", "note": "[LA, linoleic acid]", "values": [
      {"measurement": "HCMV yield, fold change relative to no treatment (NT)", "setting": "HCMV (AD169 strain)", "value": "little effect on the yield"},
      {"measurement": "Effect of including the fatty acid on the HCMV yield increase given by aminoguanidine", "setting": "HCMV (AD169 strain); MRC5, 96 h", "value": "reduced"}
    ]},
    {"smiles": "CC/C=C\\C/C=C\\C/C=C\\CCCCCCCC(=O)O", "note": "[LLA, α-linolenic acid]", "values": [
      {"measurement": "HCMV yield, fold change relative to no treatment (NT)", "setting": "HCMV (AD169 strain)", "value": "about 1.2 fold"},
      {"measurement": "Effect of including the fatty acid on the HCMV yield increase given by aminoguanidine", "setting": "HCMV (AD169 strain); MRC5, 96 h", "value": "reduced"}
    ]},
    {"smiles": "CCCCCCCC/C=C\\CCCCCCCC(=O)O", "note": "[OA, oleic acid]", "values": [
      {"measurement": "Cytotoxicity", "setting": "MRC5 cells; absence of αT", "value": "without causing observable cellular toxicity"},
      {"measurement": "HCMV yield, fold change relative to no treatment (NT)", "setting": "HCMV (AD169 strain)", "value": "reduced the yield"},
      {"measurement": "Effect of including the fatty acid on the HCMV yield increase given by aminoguanidine", "setting": "HCMV (AD169 strain); MRC5, 96 h", "value": "reduced"},
      {"measurement": "Reduction of VZV production, factor", "setting": "VZV [2]; 100 μM", "value": 2, "unit": "fold"}
    ]},
    {"smiles": "CCCCCCCCCCCCCCCCCCCCCCCCCCCC(=O)O", "note": "[OSA, octacosanoic acid]", "values": [
      {"measurement": "VZV yield in comparison to no treatment", "setting": "VZV [2]", "value": "improved virus yields"}
    ]},
    {"smiles": "N=C(N)NN", "note": "[aminoguanidine]", "values": [
      {"measurement": "HCMV production relative to no treatment", "setting": "HCMV (AD169 strain)", "value": "enhances the production of HCMV"},
      {"measurement": "HCMV yield, fold change relative to no treatment (NT)", "setting": "HCMV (AD169 strain)", "value": "about 2.6 fold"}
    ]},
    {"smiles": "CC(C)CCC[C@@H](C)[C@H]1CC[C@H]2[C@@H]3CC=C4C[C@@H](O)CC[C@]4(C)[C@H]3CC[C@]12C", "note": "[cholesterol]", "values": [
      {"measurement": "HCMV yield, fold change relative to no treatment (NT)", "setting": "HCMV (AD169 strain)", "value": "no effect"},
      {"measurement": "Effect of cholesterol on the enhancing effects of fatty acids on HCMV yield", "setting": "HCMV (AD169 strain); MRC5, 96 h, cholesterol up to about 13 μM", "value": "did not improve, and in some cases inhibited"}
    ]},
    {"smiles": "Cc1c(C)c2c(c(C)c1O)CC[C@@](C)(CCC[C@H](C)CCC[C@H](C)CCCC(C)C)O2", "note": "[αT, alpha-tocopherol]", "values": [
      {"measurement": "HCMV production relative to no treatment", "setting": "HCMV (AD169 strain)", "value": "enhances the production of HCMV"}
    ]}
  ]
}
